Results on 8 compounds are retold here after patent EP0322391A1, “New phenylalkylamine derivatives” (priority 1987, dated 1989).

Like-named read-outs stand apart in the source and are kept apart here.

The subject of the assay is OTMN-induced tremor in rat. In words: Potentiation of oxotremorine (OTMN)-induced tremor in rat (potentiation of cholinergic responses). It is filed as in vivo. The following applies: for minimal effective dose: Rattus norvegicus, ip, read-out: Potentiation of OTMN-induced tremor in rat. The protocol:
Potentiation of cholinergic responses
Male rats (Sprague Dawley Alab Laboratorietjänst AB, Sollentuna, Sweden) weighing 150-180 g, 35-40 days of age, were used. The animals were allowed free access to food (R3, Ewos AB, Södertälje, Sweden) and water until the start of the experiments. The test compounds were injected intraperitoneally (i.p.) 30 minutes before injection of the muscarine agonist oxotremorine (OTM) into the neck (s.c.). Tremor intensity was assessed visually for a 60 minutes period following the injection of OTMN in rat housed in Macrolon cages (25x25x30 cm) (three per cage). The threshold dose of OTMN for eliciting tremor in rat is about 200 µg/kg.
Tremor intensity was scored using the following rating scale: 0 = no tremor; 1 = slight tremor (moderate, discontinuous tremor; 2 = strong tremor (intense, continuous tremor involving the whole body). The animals were scored 5, 10, 15, 30 and 60 minutes after injection of OTMN. The tremor was scored for a period of 30 seconds.
The values for each observation were summed over the entire observation period (5-60 minutes) and their median values for each group were calculated (total median score). Mann-Whitney U-test (two-tailed) was used to determine differences between the control OTMN group and test groups receiving the compounds + OTMN. […].
The lowest dose causing a significant (p<0.05) potentiation of the OTMN response was determined from log-dose response curves.

Where [1] appears, read: lowest dose causing a significant (p<0.05) potentiation of the OTMN response, from log-dose response curves, test compound i.p. 30 minutes before oxotremorine s.c., male Sprague Dawley rats, tremor scored 5-60 minutes.

As for `CC(C)C(N)CC(=O)C(C)(C)Cc1ccc(F)cc1.O=C(O)C(=O)O` (centres unmarked) [Example 12, 5-Amino-1-(4-fluorophenyl)-2,2,6-trimethyl-3-heptanone oxalate], the minimal effective dose under setting [1] came to 2.5 mg/kg.

`CCC(N)CC(=O)C(C)(C)Cc1ccc(F)cc1.O=C(O)C(=O)O` (racemic) [Example 1, 5-amino-2,2-dimethyl-1-(4-fluorophenyl)-3-heptanone oxalate]: under setting [1], the minimal effective dose was found to be 0.63 mg/kg.

Regarding `CCC(N)CC(=O)C(C)(C)Cc1ccc(F)cc1` (centres unmarked) [Example 6, 5-amino-2,2-dimethyl-1-(4-fluorophenyl)-3-heptanone], the “Potentiation of OTMN-induced tremor in rat” value under setting [1] is 0.63 mg/kg.

Regarding `CC(N)C(=O)OC(C)(C)Cc1ccc(Cl)cc1` (centres unmarked) [Alaproclate, alaproclate, reference compound], the minimal effective dose was determined as 5 mg/kg.

Consider `CCC(N)CC(=O)C(C)(C)Cc1ccc(F)cc1` (centres unmarked) [Example 5, 5-amino-2,2-dimethyl-1-(4-fluorophenyl)-3-heptanone], for which, under setting [1], the minimal effective dose was 0.63 mg/kg.

With `CC(C)C(N)CC(O)C(C)(C)Cc1ccc(F)cc1.O=C(O)C(=O)O` (centres unmarked) [Example 8, 5-Amino-1-(4-fluorophenyl)-2,2,6-trimethyl-3-heptanol oxalate], the minimal effective dose under setting [1] was determined as 10 mg/kg.

Consider `CCC(N)CC(O)C(C)(C)Cc1ccc(F)cc1.O=C(O)C(=O)O` (centres unmarked) [Example 7, 5-Amino-2,2-dimethyl-1-(4-fluorophenyl)-3-heptanol oxalate], for which the minimal effective dose under setting [1] amounted to 2.5 mg/kg.

As to `CCCCCC(N)CC(O)C(C)(C)Cc1ccc(F)cc1.O=C(O)C(=O)O` (centres unmarked) [Example 9, 5-Amino-2,2-dimethyl-1-(4-fluorophenyl)-3-decanol oxalate], under setting [1], the minimal effective dose is 5 mg/kg.
